Measurements reported in publication PMC5218480 (PLoS ONE, 2017).

Tested on: MV-4-11 cells
Experiment: Gene expression microarray analysis (Affymetrix PrimeView) and GSEA
Type: cell-based, human
Parameters: RFU PODN (11730768_x_at) / Fold change /veh PODN (11730768_x_at) / RFU LINC00158 (11744669_a_at) / Fold change /veh LINC00158 (11744669_a_at) / RFU DUSP10 (11751237_a_at) / Fold change /veh DUSP10 (11751237_a_at) / RFU ID3 (11757404_x_at) / Fold change /veh ID3 (11757404_x_at) / RFU PLEKHG5 (11737974_s_at) / Fold change /veh PLEKHG5 (11737974_s_at) / RFU LRRC4B (11730491_at) / Fold change /veh LRRC4B (11730491_at) / RFU GIMAP4 (11747438_a_at) / Fold change /veh GIMAP4 (11747438_a_at) / RFU KRT8 (11758183_x_at) / Fold change /veh KRT8 (11758183_x_at) / RFU CNN1 (11734310_a_at) / Fold change /veh CNN1 (11734310_a_at) / RFU VPS37D (11726825_at) / Fold change /veh VPS37D (11726825_at) / RFU C10orf10 (11716522_x_at) / Fold change /veh C10orf10 (11716522_x_at) / RFU KIR2DL2 /// KIR2DL4 /// KIR2DL5A /// KIR2DL5B /// KIR2DS1 /// KIR2DS2 /// KIR2DS3 /// KIR2DS4 /// KIR3DL3 /// KIR3DL3 /// KIR3DS1 (11738374_at) / Fold change /veh KIR2DL2 /// KIR2DL4 /// KIR2DL5A /// KIR2DL5B /// KIR2DS1 /// KIR2DS2 /// KIR2DS3 /// KIR2DS4 /// KIR3DL3 /// KIR3DL3 /// KIR3DS1 (11738374_at) / RFU C1QL1 (11718748_at) / Fold change /veh C1QL1 (11718748_at) / RFU TMPRSS4 (11747572_a_at) / Fold change /veh TMPRSS4 (11747572_a_at) / RFU HAMP (11756126_x_at) / Fold change /veh HAMP (11756126_x_at) / RFU RNFT2 (11725882_a_at) / Fold change /veh RNFT2 (11725882_a_at) / RFU NR4A2 (11747474_a_at) / Fold change /veh NR4A2 (11747474_a_at) / RFU ABCC12 (11746883_a_at) / Fold change /veh ABCC12 (11746883_a_at) / RFU TMEM136 (11760407_x_at) / Fold change /veh TMEM136 (11760407_x_at) / RFU CLDN22 /// WWC2 (11732394_at) / Fold change /veh CLDN22 /// WWC2 (11732394_at) / RFU HLA-DPB1 (11760878_x_at) / Fold change /veh HLA-DPB1 (11760878_x_at) / RFU SPINT1 (11716480_a_at) / Fold change /veh SPINT1 (11716480_a_at) / RFU GAP43 (11754022_s_at) / Fold change /veh GAP43 (11754022_s_at) / RFU A4GNT (11735810_at) / Fold change /veh A4GNT (11735810_at) / RFU PRB3 (11715151_x_at) / Fold change /veh PRB3 (11715151_x_at) / RFU TUBB4B (11761932_at) / Fold change /veh TUBB4B (11761932_at) / RFU CAPN14 (11732068_a_at) / Fold change /veh CAPN14 (11732068_a_at) / RFU TMCC2 (11721928_a_at) / Fold change /veh TMCC2 (11721928_a_at) / RFU IRGQ (11745062_a_at) / Fold change /veh IRGQ (11745062_a_at) / RFU FAM174B (11720279_a_at) / Fold change /veh FAM174B (11720279_a_at) / RFU TMPRSS4 (11748680_a_at) / Fold change /veh TMPRSS4 (11748680_a_at) / RFU FAM212B (11763350_a_at) / Fold change /veh FAM212B (11763350_a_at) / RFU PLEKHG5 (11743358_a_at) / Fold change /veh PLEKHG5 (11743358_a_at) / RFU ZSCAN30 (11745921_a_at) / Fold change /veh ZSCAN30 (11745921_a_at) / RFU CMKLR1 (11741424_a_at) / Fold change /veh CMKLR1 (11741424_a_at) / RFU LOC101060620 /// MAPK8IP1 (11723275_at) / Fold change /veh LOC101060620 /// MAPK8IP1 (11723275_at) / RFU SPTSSB (11747773_x_at) / Fold change /veh SPTSSB (11747773_x_at) / RFU PRSS12 (11739890_at) / Fold change /veh PRSS12 (11739890_at) / RFU BIN1 (11741810_x_at) / Fold change /veh BIN1 (11741810_x_at) / RFU WNT11 (11732464_a_at) / Fold change /veh WNT11 (11732464_a_at) / RFU C10orf10 (11716521_a_at) / Fold change /veh C10orf10 (11716521_a_at) / RFU C5orf56 (11738089_at) / Fold change /veh C5orf56 (11738089_at) / RFU CYB561 (11721691_x_at) / Fold change /veh CYB561 (11721691_x_at) / RFU ANKRD19P (11752326_a_at) / Fold change /veh ANKRD19P (11752326_a_at) / RFU OR2T12 /// OR2T33 /// OR2T8 (11738714_s_at) / Fold change /veh OR2T12 /// OR2T33 /// OR2T8 (11738714_s_at) / RFU VCAN (11748164_a_at) / Fold change /veh VCAN (11748164_a_at) / RFU JSRP1 (11732532_at) / Fold change /veh JSRP1 (11732532_at) / RFU KRTAP10-11 (11738290_x_at) / Fold change /veh KRTAP10-11 (11738290_x_at) / RFU MYO3A (11730013_a_at) / Fold change /veh MYO3A (11730013_a_at) / RFU EBF3 (11725865_a_at) / Fold change /veh EBF3 (11725865_a_at) / RFU CAMK2N1 (11719241_x_at) / Fold change /veh CAMK2N1 (11719241_x_at) / RFU C5orf56 (11738088_a_at) / Fold change /veh C5orf56 (11738088_a_at) / RFU OLFML3 (11715873_a_at) / Fold change /veh OLFML3 (11715873_a_at) / RFU LOC100653217 /// NTM (11731650_a_at) / Fold change /veh LOC100653217 /// NTM (11731650_a_at) / RFU MAPK11 (11762145_a_at) / Fold change /veh MAPK11 (11762145_a_at) / RFU FIZ1 (11724087_x_at) / Fold change /veh FIZ1 (11724087_x_at) / RFU OASL (11726364_x_at) / Fold change /veh OASL (11726364_x_at) / RFU SOX15 (11748057_x_at) / Fold change /veh SOX15 (11748057_x_at) / RFU CD79A (11719716_a_at) / Fold change /veh CD79A (11719716_a_at) / RFU HIST1H1D (11736915_at) / Fold change /veh HIST1H1D (11736915_at) / RFU CASKIN2 (11723855_a_at) / Fold change /veh CASKIN2 (11723855_a_at) / RFU LOC730098 (11760151_x_at) / Fold change /veh LOC730098 (11760151_x_at) / RFU OR4N2 (11742367_at) / Fold change /veh OR4N2 (11742367_at) / RFU PRRT2 (11749266_a_at) / Fold change /veh PRRT2 (11749266_a_at) / RFU SNX32 (11753110_a_at) / Fold change /veh SNX32 (11753110_a_at) / RFU CDHR5 (11726645_a_at) / Fold change /veh CDHR5 (11726645_a_at) / RFU RCAN1 (11760418_a_at) / Fold change /veh RCAN1 (11760418_a_at) / RFU FAM167A (11723789_a_at) / Fold change /veh FAM167A (11723789_a_at) / RFU FAM26E (11764081_at) / Fold change /veh FAM26E (11764081_at) / RFU ISYNA1 (11749810_s_at) / Fold change /veh ISYNA1 (11749810_s_at) / RFU ACY1 (11761880_at) / Fold change /veh ACY1 (11761880_at) / RFU 11764098_at / Fold change /veh 11764098_at / RFU SAMD14 (11745864_x_at) / Fold change /veh SAMD14 (11745864_x_at) / RFU NPB (11741838_a_at) / Fold change /veh NPB (11741838_a_at) / RFU TMPRSS6 (11731388_a_at) / Fold change /veh TMPRSS6 (11731388_a_at) / RFU KRTAP10-2 (11738614_at) / Fold change /veh KRTAP10-2 (11738614_at) / RFU ARHGAP8 /// PRR5-ARHGAP8 (11727945_x_at) / Fold change /veh ARHGAP8 /// PRR5-ARHGAP8 (11727945_x_at) / RFU KRTAP5-7 /// NADSYN1 (11734609_at) / Fold change /veh KRTAP5-7 /// NADSYN1 (11734609_at) / RFU RASL12 (11751679_a_at) / Fold change /veh RASL12 (11751679_a_at) / RFU CDKN2B (11736163_a_at) / Fold change /veh CDKN2B (11736163_a_at) / RFU PRF1 (11729649_at) / Fold change /veh PRF1 (11729649_at) / RFU, ZNF638 /// ZNF638-IT1 / Fold change vs veh, ZNF638 /// ZNF638-IT1 / RFU, PANK3 / Fold change vs veh, PANK3 / RFU, SH3YL1 / Fold change vs veh, SH3YL1 / RFU, ZEB2 / Fold change vs veh, ZEB2 / RFU, NRIP1 / Fold change vs veh, NRIP1 / RFU, PTTG1IP / Fold change vs veh, PTTG1IP / RFU, CAPN2 / Fold change vs veh, CAPN2 / RFU, MED14 / Fold change vs veh, MED14 / RFU, SNORA58 / Fold change vs veh, SNORA58 / RFU, C1orf63 / Fold change vs veh, C1orf63 / RFU, LRRFIP1 / Fold change vs veh, LRRFIP1 / RFU, NDUFAF7 / Fold change vs veh, NDUFAF7 / RFU, SLC12A2 / Fold change vs veh, SLC12A2 / RFU, IBTK / Fold change vs veh, IBTK / RFU, ESF1 / Fold change vs veh, ESF1 / Fold change vs veh, TMEM50B / RFU, TAOK1 / Fold change vs veh, TAOK1 / RFU, ACBD3 / Fold change vs veh, ACBD3 / RFU, TMA16 / Fold change vs veh, TMA16 / RFU, RWDD3 / Fold change vs veh, RWDD3 / RFU, BCAT1 / Fold change vs veh, BCAT1 / RFU, EDEM3 / Fold change vs veh, EDEM3 / RFU, TMEM33 / Fold change vs veh, TMEM33 / RFU, WDR75 / Fold change vs veh, WDR75 / RFU, AHCTF1 / Fold change vs veh, AHCTF1 / RFU, TFRC / Fold change vs veh, TFRC / RFU, ZDHHC17 / Fold change vs veh, ZDHHC17 / RFU, NOM1 / Fold change vs veh, NOM1 / RFU, ARL8B / Fold change vs veh, ARL8B / RFU, ZBTB11 / Fold change vs veh, ZBTB11 / RFU, TAMM41 / Fold change vs veh, TAMM41 / RFU, KIAA1704 /// LOC100996395 / Fold change vs veh, KIAA1704 /// LOC100996395 / RFU, ING1 / Fold change vs veh, ING1 / RFU, TRMT61B / Fold change vs veh, TRMT61B / RFU, FUBP3 / Fold change vs veh, FUBP3 / RFU, TP53 / Fold change vs veh, TP53 / RFU, TNKS2 / Fold change vs veh, TNKS2 / RFU, ZFP14 / Fold change vs veh, ZFP14 / RFU, ACTR2 / Fold change vs veh, ACTR2 / RFU, PPP3R1 / Fold change vs veh, PPP3R1 / RFU, PIK3R1 / Fold change vs veh, PIK3R1 / RFU, HNRNPA1 / Fold change vs veh, HNRNPA1 / RFU, RNF170 / Fold change vs veh, RNF170 / RFU, ZNF28 / Fold change vs veh, ZNF28 / RFU, RNGTT / Fold change vs veh, RNGTT / RFU, OGT / Fold change vs veh, OGT / RFU, BRD1 / Fold change vs veh, BRD1 / RFU, MARS / Fold change vs veh, MARS / RFU, ZNF655 / Fold change vs veh, ZNF655 / RFU, FAHD1 / Fold change vs veh, FAHD1 / RFU, BDP1 / Fold change vs veh, BDP1 / RFU, LRRCC1 / Fold change vs veh, LRRCC1 / RFU, ARID1A / Fold change vs veh, ARID1A / RFU, ZNF146 / Fold change vs veh, ZNF146 / RFU, ZNF330 / Fold change vs veh, ZNF330 / RFU, GPN3 / Fold change vs veh, GPN3 / RFU, C9orf123 / Fold change vs veh, C9orf123 / RFU, N4BP2L2 / Fold change vs veh, N4BP2L2 / RFU, ARFIP1 / Fold change vs veh, ARFIP1 / RFU, FAM179B / Fold change vs veh, FAM179B / RFU, BCL10 / Fold change vs veh, BCL10 / RFU, UHRF1BP1L / Fold change vs veh, UHRF1BP1L / RFU, BET1 / Fold change vs veh, BET1 / RFU, CNOT2 / Fold change vs veh, CNOT2 / RFU, ZNF268 / Fold change vs veh, ZNF268 / Fold change vs veh, ZNF507 / RFU, DGCR2 / Fold change vs veh, DGCR2 / RFU, WDSUB1 / Fold change vs veh, WDSUB1 / Fold change vs veh, HSP90B1 /// MIR3652 / RFU, ADSS / Fold change vs veh, ADSS / RFU, GK / Fold change vs veh, GK / RFU, ZNF148 / Fold change vs veh, ZNF148 / RFU, TAF9 / Fold change vs veh, TAF9 / RFU, SLC1A5 / Fold change vs veh, SLC1A5 / RFU, SLMO2 / Fold change vs veh, SLMO2 / RFU, ABCC4 / Fold change vs veh, ABCC4 / RFU, LOC101060439 /// RAP1B / Fold change vs veh, LOC101060439 /// RAP1B / RFU, RFX7 / Fold change vs veh, RFX7 / RFU, GTPBP10 / Fold change vs veh, GTPBP10 / RFU, CNEP1R1 / Fold change vs veh, CNEP1R1 / RFU, BIVM-ERCC5 /// ERCC5 / Fold change vs veh, BIVM-ERCC5 /// ERCC5 / RFU, ILF3 / Fold change vs veh, ILF3 / RFU 11762660_at / Fold change /veh 11762660_at / RFU VCAN (11757783_s_at) / Fold change /veh VCAN (11757783_s_at) / RFU DDX43 (11728927_at) / Fold change /veh DDX43 (11728927_at) / RFU KRT8 (11758188_x_at) / Fold change /veh KRT8 (11758188_x_at) / RFU NKD1 (11759106_at) / Fold change /veh NKD1 (11759106_at) / RFU SRD5A1 (11742802_a_at) / Fold change /veh SRD5A1 (11742802_a_at) / RFU TPSAB1 /// TPSB2 (11721975_s_at) / Fold change /veh TPSAB1 /// TPSB2 (11721975_s_at) / RFU GSTM3 (11746129_a_at) / Fold change /veh GSTM3 (11746129_a_at) / RFU IL23R (11737362_x_at) / Fold change /veh IL23R (11737362_x_at) / RFU TMEM51 (11727254_a_at) / Fold change /veh TMEM51 (11727254_a_at) / RFU PIWIL2 (11732686_x_at) / Fold change /veh PIWIL2 (11732686_x_at) / RFU ORM1 (11744905_x_at) / Fold change /veh ORM1 (11744905_x_at) / RFU CCDC152 (11743942_at) / Fold change /veh CCDC152 (11743942_at) / RFU ECM1 (11717891_a_at) / Fold change /veh ECM1 (11717891_a_at) / RFU IL23R (11748794_a_at) / Fold change /veh IL23R (11748794_a_at) / RFU TNFAIP8L3 (11732012_x_at) / Fold change /veh TNFAIP8L3 (11732012_x_at) / RFU MBOAT4 (11741988_at) / Fold change /veh MBOAT4 (11741988_at) / RFU 11764193_at / Fold change /veh 11764193_at / RFU TMEM53 (11763286_at) / Fold change /veh TMEM53 (11763286_at) / RFU MAGEB2 (11727129_at) / Fold change /veh MAGEB2 (11727129_at) / RFU TMEM200A (11744735_a_at) / Fold change /veh TMEM200A (11744735_a_at) / RFU CCDC152 (11751479_a_at) / Fold change /veh CCDC152 (11751479_a_at) / RFU FAM211A (11726209_a_at) / Fold change /veh FAM211A (11726209_a_at) / RFU RGS16 (11746705_a_at) / Fold change /veh RGS16 (11746705_a_at) / RFU VCAN (11755009_s_at) / Fold change /veh VCAN (11755009_s_at) / RFU RHOB (11743442_s_at) / Fold change /veh RHOB (11743442_s_at) / RFU RGS16 (11720943_a_at) / Fold change /veh RGS16 (11720943_a_at) / RFU RGS16 (11720944_at) / Fold change /veh RGS16 (11720944_at) / RFU, VPS4B / Fold change vs veh, VPS4B / RFU, CREB1 / Fold change vs veh, CREB1 / RFU, DNAJC13 / Fold change vs veh, DNAJC13 / RFU, GNAQ / Fold change vs veh, GNAQ / RFU, CDK5R1 / Fold change vs veh, CDK5R1 / RFU, ZRANB3 / Fold change vs veh, ZRANB3 / RFU, CUL4A / Fold change vs veh, CUL4A / RFU, CCNY / Fold change vs veh, CCNY / RFU, UFL1 / Fold change vs veh, UFL1 / RFU, COG3 / Fold change vs veh, COG3 / RFU, DIAPH2 / Fold change vs veh, DIAPH2 / RFU, SKA2 / Fold change vs veh, SKA2 / RFU, AFF3 / Fold change vs veh, AFF3 / RFU, LMF1 / Fold change vs veh, LMF1 / RFU, IPO11 / Fold change vs veh, IPO11 / RFU, DFFB / Fold change vs veh, DFFB / RFU, FOXP1 / Fold change vs veh, FOXP1 / RFU, CARD8 / Fold change vs veh, CARD8 / RFU, STRN3 / Fold change vs veh, STRN3 / RFU, ADK / Fold change vs veh, ADK / RFU, RASSF2 / Fold change vs veh, RASSF2 / RFU, WIPF1 / Fold change vs veh, WIPF1 / RFU, LARP1B / Fold change vs veh, LARP1B / RFU, RASA1 / Fold change vs veh, RASA1 / RFU, RB1 / Fold change vs veh, RB1 / RFU, PPFIA1 / Fold change vs veh, PPFIA1 / RFU, MAT2A / Fold change vs veh, MAT2A / RFU, CCT5 / Fold change vs veh, CCT5 / RFU, WDR92 / Fold change vs veh, WDR92 / RFU, CUX1 / Fold change vs veh, CUX1 / RFU, TTC7A / Fold change vs veh, TTC7A / RFU, TMEM135 / Fold change vs veh, TMEM135 / RFU, DEPTOR / Fold change vs veh, DEPTOR / RFU, CPM / Fold change vs veh, CPM / RFU, DNAJB6 / Fold change vs veh, DNAJB6 / RFU, CACNA2D3 / Fold change vs veh, CACNA2D3 / RFU, DTX4 / Fold change vs veh, DTX4 / RFU, TFCP2 / Fold change vs veh, TFCP2 / RFU, GMCL1 /// GMCL1P1 / Fold change vs veh, GMCL1 /// GMCL1P1 / RFU, AEBP2 / Fold change vs veh, AEBP2 / RFU, SNHG1 /// SNORD22 /// SNORD25 /// SNORD26 /// SNORD27 /// SNORD28 /// SNORD29 /// SNORD31 / Fold change vs veh, SNHG1 /// SNORD22 /// SNORD25 /// SNORD26 /// SNORD27 /// SNORD28 /// SNORD29 /// SNORD31 / Fold change (Aza/veh), C12orf56 (ProbeSet 11735607_a_at) / Fold change (ACY-1035/veh), C12orf56 (ProbeSet 11735607_a_at) / Fold change (Aza/veh), FGFR1OP (ProbeSet 11751329_s_at) / Fold change (ACY-1035/veh), FGFR1OP (ProbeSet 11751329_s_at) / Fold change (Aza/veh), VPS36 (ProbeSet 11739960_a_at) / Fold change (ACY-1035/veh), VPS36 (ProbeSet 11739960_a_at) / RFU SYPL1 (11715823_x_at) / Fold change /veh SYPL1 (11715823_x_at) / RFU IGFBP7 (11715501_s_at) / Fold change /veh IGFBP7 (11715501_s_at) / RFU REEP3 (11722064_at) / Fold change /veh REEP3 (11722064_at) / RFU IGLL1 (11728026_x_at) / Fold change /veh IGLL1 (11728026_x_at): dose or concentration left out as unconfirmed
Settings: ProbeSet 11764057_s_at; LIST B

## Nc1ncn([C@@H]2O[C@H](CO)[C@@H](O)[C@H]2O)c(=O)n1 [azacitidine]
  RFU, C1orf63: 124.54 RFU
